The values that follow are results of earlier work, collected in US20240050950A1, “GRADIENT-BASED MICROFLUIDIC CIRCUIT, DEVICE, AND METHOD FOR PERFORMING AN ASSAY” (priority 2020, published 2024).

Counter-ions that a name gives are not always drawn. Like-named read-outs stand apart in the source and are kept apart here.

The conditions of the data set: cited from earlier work.
[1] abbreviates: Table 3, antifungal drugs and other molecules.
Setting [2] is: Table 1, antimicrobial agents/drugs.

As for `Clc1ccc(C(Cn2ccnc2)OCc2ccsc2Cl)c(Cl)c1` (stereo not shown) [Tioconazole], the Molar volume under setting [1] is 269.0 ± 7.0 cm^3.

As to `Cc1cccc(N(C)C(=S)Oc2ccc3ccccc3c2)c1` [Tolnaftate], under setting [1], the Molar volume is 251.1 ± 3.0 cm^3.

For `COc1cc2c(cc1O)CCN[C@]21CS[C@@H]2c3c(OC(C)=O)c(C)c4c(c3[C@H](COC1=O)N1[C@@H]2[C@H]2c3c(cc(C)c(OC)c3O)C[C@@H]([C@@H]1O)N2C)OCO4` [Trabectedin (Yondelis), Trabectedin], under “Table 2, anticancer drugs”, the Molar volume is given as 489.2 ± 5.0 cm^3.

On to `Nc1ncnc2c1ccn2[C@@H]1O[C@H](CO)[C@@H](O)[C@H]1O` [Tubercidin], for which the Molar volume under setting [1] was 139.5 ± 7.0 cm^3.

Take `CC(=O)OC[C@H]1O[C@@H](n2ccc(=O)[nH]c2=O)[C@H](OC(C)=O)[C@@H]1OC(C)=O` [Uridine Triacetate (Vistogard), Uridine Triacetate]: where the note is “Table 2, anticancer drugs”, the Molar volume is on record as 257.5 ± 5.0 cm^3.

For `CCCCC(=O)OCC(=O)[C@]1(O)Cc2c(O)c3c(c(O)c2[C@@H](O[C@H]2C[C@H](NC(=O)C(F)(F)F)[C@H](O)[C@H](C)O2)C1)C(=O)c1c(OC)cccc1C3=O` [Valrubicin], the Molar volume (Table 2, anticancer drugs) is 469.8 ± 5.0 cm^3.

Consider `CC[C@]1(O)C[C@@H]2CN(CCc3c([nH]c4ccccc34)[C@@](C(=O)OC)(c3cc4c(cc3OC)N(C)[C@H]3[C@@](O)(C(=O)OC)[C@H](OC(C)=O)[C@]5(CC)C=CCN6CC[C@]43[C@@H]65)C2)C1` [Vinblastine Sulfate], for which, under “Table 2, anticancer drugs”, the Molar volume was 590.0 ± 5.0 cm^3.

Regarding `O=C(CCCCCCC(=O)Nc1ccccc1)NO` [Vorinostat (Zolinza), Vorinostat], the Molar volume (Table 2, anticancer drugs) is listed as 224.9 ± 3.0 cm^3.

For the molecule `Cc1nccn1CC1CCc2c(c3ccccc3n2C)C1=O` (stereo not shown) [Zofran (Ondansetron Hydrochloride), Ondansetron Hydrochloride], under “Table 2, anticancer drugs”, the Molar volume is recorded as 230.1 ± 7.0 cm^3.

In the case of `O=C(O)CN(CC(=O)O)Cc1cc2c(cc1O)Oc1cc(O)c(CN(CC(=O)O)CC(=O)O)cc1C21OC(=O)c2ccccc21` [calcein], the Molar volume (fluorescent dyes) is on record as 356±5 cm^3/mole.

For `O=c1ccc2[n+]([O-])c3ccc(O)cc3oc-2c1` [resazurin], the Molar volume (fluorescent dyes) is 145±7 cm^3/mole.

For the molecule `CC1(C)S[C@@H]2[C@H](NC(=O)C(C(=O)O)c3ccccc3)C(=O)N2[C@H]1C(=O)O` (stereo partly drawn) [α-Carboxybenzylpenicillin], the Molar volume under setting [2] is 246.1 ± 5.0 cm^3.

In the case of Aculeacin A, the Molar volume under setting [2] is given as 754.1 ± 5.0 cm^3.

As for Alemtuzumab, the Molar volume (Table 2, anticancer drugs) was 165.7 ± 7.0 cm^3.

Take Antimycin: the Molar volume under setting [1] is recorded as 431.0 ± 5.0 cm^3.

In the case of Bleomycin, the Molar volume under setting [1] is recorded as 887.0 ± 5.0 cm^3.

For the molecule Cinnamycin, under setting [1], the Molar volume is recorded as 1281.0 ± 7.0 cm^3.

Take Colistin: the Molar volume under setting [2] is 916.9 ± 5.0 cm^3.

In the case of Epoetin Alfa, where the note is “Table 2, anticancer drugs”, the Molar volume is on record as 665.6 ± 5.0 cm^3.

Turning to Fengycin [Fengycin (Plipastatin)], the Molar volume under setting [1] is 1105.9 ± 5.0 cm^3.

Regarding “Gilteritinib Fumarate [Xospata (Gilteritinib Fumarate)]”, the Molar volume (Table 2, anticancer drugs) is reported as 444.9 ± 3.0 cm^3.

Regarding Ikarugamycin, under setting [2], the Molar volume was 390.4 ± 5.0 cm^3.

Turning to Ivermectin Bla, the Molar volume under setting [2] was 708.3 ± 5.0 cm^3.

Consider Kirromycin [Kirromycin (mocimycin)], for which the Molar volume under setting [2] is 622.6 ± 3.0 cm^3.

As to “Lactoferricin B (SITCVRRAFALECIRAIAEKKADAV; Lactoferricin-B; UniProt P24627 52-76, looked up, fragment) [Lactoferricin B (metallibure)]”, the Molar volume under setting [2] was 184.7 ± 3.0 cm^3.

Regarding Lysobactin, the Molar volume under setting [2] is given as 895.9 ± 7.0 cm^3.

For Magainin I, under setting [2], the Molar volume is 1900.4 ± 3.0 cm^3.

As for “Mithramycin A [Mithramycin A (Plicamycin)]”, the Molar volume under setting [2] is 728.3 ± 5.0 cm^3.

For the molecule Neomycin, the Molar volume under setting [2] is recorded as 380.3 ± 5.0 cm^3.

Take “Phleomycin [Phleomycin (UNII:BN3E7WJN9X)]”: the Molar volume under setting [2] is reported as 724.4 ± 7.0 cm^3.

Turning to Polymyxin B, the Molar volume under setting [2] was 941.8 ± 5.0 cm^3.
